According to patent US8466088B2, “Herbicidal compositions containing benzoylpyrazole compounds” (Ishihara Sangyo Kaisha, Ltd., priority 2007, dated 2013):
Where two headings read alike, the source gives them in different places.

Columns and labels:
crabgrass = test: Example 1: pot test, foliar treatment, visually observed growth inhibition of crabgrass; format: in vivo
Source text: (§1) When the herbicidal activity in a case where two active ingredients are combined, is larger than the simple sum of the respective herbicidal activities of the two active ingredients (the expected activity), it is called a synergistic effect. The activity expected by the combination of two active ingredients can be calculated as follows (Colby S. R., “Weed”, vol. 15, p. 20-22, 1967). E=α+β−(α×β+100) where
(§2) α: growth inhibition rate when treated with x (g/ha) of herbicide X,
(§3) β: growth inhibition rate when treated with y (g/ha) of herbicide Y,
(§4) E: growth inhibition rate expected when treated with x (g/ha) of herbicide X and y (g/ha) of herbicide Y.
(§5) That is, when the actual growth inhibition rate (measured value) is larger than the growth inhibition rate by the above calculation (calculated value), the activity by the combination can be regarded as showing a synergistic effect.
(§6) Upland field soil was put into a 1/1,000,000 hectare pot, and seeds of various plants were sown. When the respective plants reached predetermined leaf stage, herbicidal compositions in predetermined amounts were diluted with water in an amount corresponding to 300 L/ha and applied for foliar treatment by a small sprayer.
(§7) Further, in accordance with the above Colby's formula, the growth inhibition rate (calculated value) was calculated. In Tables, with respect to the compound A, Compound Nos. in Table 1 or 3 are described, and with respect to other herbicidal compounds, common names are described.

various plants = test: Example 1: pot test, foliar treatment, visually observed growth inhibition of other sown plants (Tables 5-1 to 5-137); format: in vivo; conditions: for Growth inhibition rate (%) of prickly sida, Measured value: prickly sida 2.1 to 3.1 leaf stage, 20th day after application
Source text: as §1, §2, §3, §4, §5, §6
as §7, with “On the 14th to 28th day after application, the state of growth of the respective plants was visually observed to determine the growth inhibition rate (measured value) in accordance with the following evaluation standard. Further,” for “Further,”

velvetleaf = test: Example 1: pot test, foliar treatment, visually observed growth inhibition of velvetleaf; format: in vivo, Abutilon theophrasti MEDIC.
Source text: as §1, §2, §3, §4, §5, §6, §7

[1] = 3.2 to 4.3 leaf stage, 21st day after application, 15 g/ha
[2] = Abutilon theophrasti, foliar, 2.0 to 2.5 leaf stage, 21st day after application, read-out: Growth inhibition rate (%) of velvetleaf, Measured value
[3] = Abutilon theophrasti, foliar, 3.3 to 4.2 leaf stage, 22nd day after application, read-out: Growth inhibition rate (%) of velvetleaf, Measured value
[4] = Digitaria sanguinalis, foliar, read-out: Growth inhibition rate (%) of crabgrass, Measured value

In the case of `COCCOc1c(S(C)(=O)=O)ccc(C(=O)c2cnn(C)c2OC(=O)SC(C)(C)C)c1C` [No. 241], the “Growth inhibition rate (%) of crabgrass, Measured value” (crabgrass; 3.1 to 4.0 leaf stage, 22nd day after application, 15 g/ha) is reported as 90%, the “Growth inhibition rate (%) of crabgrass, Measured value” (crabgrass; 3.2 to 4.1 leaf stage, 14th day after application, 15 g/ha) is reported as 94% and the “Growth inhibition rate (%) of crabgrass, Measured value” (crabgrass; 3.2 to 4.1 leaf stage, 21st day after application, 7 g/ha) is reported as 80%. The “Growth inhibition rate (%) of crabgrass, Measured value” (crabgrass; 3.2 to 4.1 leaf stage, 21st day after application, 15 g/ha) was 93%, the “Growth inhibition rate (%) of crabgrass, Measured value” (crabgrass; 3.2 to 4.3 leaf stage, 14th day after application, 15 g/ha) was 93% and the “Growth inhibition rate (%) of crabgrass, Measured value” (crabgrass; [1]) was 88%. The “Growth inhibition rate (%) of crabgrass, Measured value” (crabgrass; 3.3 to 4.2 leaf stage, 24th day after application, 15 g/ha) was 75%, the “Growth inhibition rate (%) of crabgrass, Measured value” (crabgrass; 3.5 to 4.2 leaf stage, 14th day after application, 15 g/ha) was 90% and the “Growth inhibition rate (%) of crabgrass, Measured value” (crabgrass; 3.5 to 4.2 leaf stage, 20th day after application, 1.875 g/ha) was 30%. For the same compound, the “Growth inhibition rate (%) of crabgrass, Measured value” (crabgrass; 3.5 to 4.2 leaf stage, 20th day after application, 3.75 g/ha) was 68%, the “Growth inhibition rate (%) of crabgrass, Measured value” (crabgrass; 3.7 to 4.6 leaf stage, 21st day after application, 7 g/ha) was 80% and the “Growth inhibition rate (%) of crabgrass, Measured value” (crabgrass; 3.7 to 4.6 leaf stage, 21st day after application, 15 g/ha) was 94%. For the same compound, the “Growth inhibition rate (%) of crabgrass, Measured value” (crabgrass; 4.0 to 5.0 leaf stage, 21st day after application, 7 g/ha) was 60%, the “Growth inhibition rate (%) of crabgrass, Measured value” (crabgrass; 4.0 to 5.0 leaf stage, 21st day after application, 15 g/ha) was 80% and the “Growth inhibition rate (%) of ivyleaf morningglory, Measured value” (various plants; ivyleaf morningglory 1.5 to 2.1 leaf stage, 14th day after application, 75 g/ha) was 88%. For the same compound, the “Growth inhibition rate (%) of ivyleaf morningglory, Measured value” (various plants; ivyleaf morningglory 1.5 to 2.1 leaf stage, 23rd day after application, 100 g/ha) was 85%, the “Growth inhibition rate (%) of prickly sida, Measured value” (various plants; 50 g/ha) was 60% and the “Growth inhibition rate (%) of prickly sida, Measured value” (various plants; 100 g/ha) was 60%. The “Growth inhibition rate (%) of velvetleaf, Measured value” (velvetleaf; 2.5 to 3.3 leaf stage, 21st day after application, 7 g/ha) was 65%, the “Growth inhibition rate (%) of velvetleaf, Measured value” (velvetleaf; 2.5 to 3.3 leaf stage, 21st day after application, 15 g/ha) was 80% and the “Growth inhibition rate (%) of velvetleaf, Measured value” (velvetleaf; 2.6 to 3.3 leaf stage, 20th day after application, 7 g/ha) was 70%. For the same compound, the “Growth inhibition rate (%) of velvetleaf, Measured value” (velvetleaf; 2.8 to 3.6 leaf stage, 24th day after application, 3.75 g/ha) was 45%, the “Growth inhibition rate (%) of velvetleaf, Measured value” (velvetleaf; 3.0 to 4.0 leaf stage, 21st day after application, 7 g/ha) was 60% and the “Growth inhibition rate (%) of velvetleaf, Measured value” (velvetleaf; 3.0 to 4.0 leaf stage, 21st day after application, 15 g/ha) was 80%. The “Growth inhibition rate (%) of velvetleaf, Measured value” (velvetleaf; [1]) was 85%, the “Growth inhibition rate (%) of velvetleaf, Measured value” (velvetleaf; 3.3 to 4.3 leaf stage, 20th day after application, 3.75 g/ha) was 45% and the “Growth inhibition rate (%) of velvetleaf, Measured value” (velvetleaf; 3.3 to 4.3 leaf stage, 20th day after application, 15 g/ha) was 80%. For the same compound, the “Growth inhibition rate (%) of velvetleaf, Measured value” (velvetleaf; 4.0 to 4.4 leaf stage, 22nd day after application, 15 g/ha) was 97%.
`CCOCN(C(=O)CCl)c1c(C)cccc1CC` [Acetochlor] showed an inhibition at 400 g/ha (crabgrass; Digitaria sanguinalis, foliar, 3.3 to 4.2 leaf stage, 24th day after application, 400 g/ha, read-out: Growth inhibition rate (%) of crabgrass, Measured value) of 0%, an inhibition at 600 g/ha (crabgrass; Digitaria sanguinalis, foliar, 3.3 to 4.2 leaf stage, 24th day after application, 600 g/ha, read-out: Growth inhibition rate (%) of crabgrass, Measured value) of 0% and an inhibition at 800 g/ha (crabgrass; Digitaria sanguinalis, foliar, 3.3 to 4.2 leaf stage, 24th day after application, 800 g/ha, read-out: Growth inhibition rate (%) of crabgrass, Measured value) of 0%. For the same compound, the inhibition at 1600 g/ha (crabgrass; Digitaria sanguinalis, foliar, 3.3 to 4.2 leaf stage, 24th day after application, 1600 g/ha, read-out: Growth inhibition rate (%) of crabgrass, Measured value) was 0%, the inhibition at 100 g/ha (various plants; Ipomoea, foliar, ivyleaf morningglory 1.5 to 2.1 leaf stage, 14th day after application, 100 g/ha, read-out: Growth inhibition rate (%) of ivyleaf morningglory, Measured value) was 0% and the inhibition at 150 g/ha (various plants; Ipomoea, foliar, ivyleaf morningglory 1.5 to 2.1 leaf stage, 14th day after application, 150 g/ha, read-out: Growth inhibition rate (%) of ivyleaf morningglory, Measured value) was 0%. For the same compound, the inhibition at 200 g/ha (various plants; Ipomoea, foliar, ivyleaf morningglory 1.5 to 2.1 leaf stage, 14th day after application, 200 g/ha, read-out: Growth inhibition rate (%) of ivyleaf morningglory, Measured value) was 0%, the inhibition at 150 g/ha (velvetleaf; [2]) was 0% and the inhibition at 150 g/ha (velvetleaf; [3]) was 0%. For the same compound, the inhibition at 300 g/ha (velvetleaf; [3]) was 0%.
Compound `CS(=O)(=O)c1ccc(C(=O)C2C(=O)CCCC2=O)c(Cl)c1` [Sulcotrione] has an inhibition at 15 g/ha (crabgrass; [4]) of 10%, an inhibition at 15.6 g/ha (crabgrass; [4]) of 50% and an inhibition at 31 g/ha (crabgrass; [4]) of 65%. The inhibition at 15 g/ha (velvetleaf; Abutilon theophrasti, foliar, read-out: Growth inhibition rate (%) of velvetleaf, Measured value, 3.2 to 4.3 leaf stage, 21st day after application, 15 g/ha) was 25%.
Compound `CC(C)N1C(=O)c2ccccc2NS1(=O)=O` [Bentazone-sodium] has an inhibition at 200 g/ha (crabgrass; Digitaria sanguinalis, foliar, 3.2 to 4.1 leaf stage, 21st day after application, read-out: Growth inhibition rate (%) of crabgrass, Measured value) of 0%, an inhibition at 200 g/ha (crabgrass; Digitaria sanguinalis, foliar, 4.1 to 5.3 leaf stage, 14th day after application, read-out: Growth inhibition rate (%) of crabgrass, Measured value) of 0% and an inhibition at 150 g/ha (velvetleaf; [2]) of 95%. It also gave an inhibition at 100 g/ha (velvetleaf; Abutilon theophrasti, foliar, 3.0 to 4.0 leaf stage, 21st day after application, 100 g/ha, read-out: Growth inhibition rate (%) of velvetleaf, Measured value) of 0% and an inhibition at 200 g/ha (velvetleaf; Abutilon theophrasti, foliar, 3.0 to 4.0 leaf stage, 21st day after application, 200 g/ha, read-out: Growth inhibition rate (%) of velvetleaf, Measured value) of 20%.
For `CC(C)N(C(=O)COc1nnc(C(F)(F)F)s1)c1ccc(F)cc1` [Flufenacet], the inhibition at 150 g/ha (crabgrass; Digitaria sanguinalis, foliar, 3.0 to 4.3 leaf stage, 21st day after application, 150 g/ha, read-out: Growth inhibition rate (%) of crabgrass, Measured value) was 0%, the inhibition at 300 g/ha (crabgrass; Digitaria sanguinalis, foliar, 3.0 to 4.3 leaf stage, 21st day after application, read-out: Growth inhibition rate (%) of crabgrass, Measured value) was 5% and the inhibition at 300 g/ha (crabgrass; Digitaria sanguinalis, foliar, 3.2 to 4.3 leaf stage, 21st day after application, read-out: Growth inhibition rate (%) of crabgrass, Measured value) was 10%. The inhibition at 300 g/ha (velvetleaf; Abutilon theophrasti, foliar, 3.2 to 4.3 leaf stage, 21st day after application, read-out: Growth inhibition rate (%) of velvetleaf, Measured value) was 0%.
`CCCCCCCC(=O)Oc1c(Br)cc(C#N)cc1Br` [Bromoxynil-octanoate] showed an inhibition at 63 g/ha (crabgrass; Digitaria sanguinalis, foliar, 3.5 to 4.0 leaf stage, 21st day after application, 63 g/ha, read-out: Growth inhibition rate (%) of crabgrass, Measured value) of 0%, an inhibition at 63 g/ha (velvetleaf; [2]) of 25% and an inhibition at 50 g/ha (velvetleaf; Abutilon theophrasti, foliar, 3.0 to 3.8 leaf stage, 15th day after application, read-out: Growth inhibition rate (%) of velvetleaf, Measured value) of 0%. For the same compound, the inhibition at 50 g/ha (velvetleaf; Abutilon theophrasti, foliar, 3.2 to 5.0 leaf stage, 14th day after application, read-out: Growth inhibition rate (%) of velvetleaf, Measured value) was 20%, the inhibition at 50 g/ha (velvetleaf; Abutilon theophrasti, foliar, 3.2 to 5.0 leaf stage, 21st day after application, read-out: Growth inhibition rate (%) of velvetleaf, Measured value) was 10% and the inhibition at 63 g/ha (velvetleaf; [3]) was 45%. It also gave an inhibition at 125 g/ha (velvetleaf; Abutilon theophrasti, foliar, 3.3 to 4.2 leaf stage, 22nd day after application, 125 g/ha, read-out: Growth inhibition rate (%) of velvetleaf, Measured value) of 50% and an inhibition at 50 g/ha (velvetleaf; Abutilon theophrasti, foliar, 3.5 to 4.3 leaf stage, 21st day after application, read-out: Growth inhibition rate (%) of velvetleaf, Measured value) of 0%.
Work on `CCOC(=O)C(Cl)Cc1cc(-n2nc(C)n(C(F)F)c2=O)c(F)cc1Cl` (stereo not shown) [Carfentrazone-ethyl] yielded an inhibition at 2.5 g/ha (crabgrass; [4]) of 0%, an inhibition at 5 g/ha (crabgrass; [4]) of 0% and an inhibition at 5 g/ha (velvetleaf; Abutilon theophrasti, foliar, read-out: Growth inhibition rate (%) of velvetleaf, Measured value, 2.0 to 2.5 leaf stage, 21st day after application) of 98%. It also gave an inhibition at 2.5 g/ha (velvetleaf; Abutilon theophrasti, foliar, read-out: Growth inhibition rate (%) of velvetleaf, Measured value, 3.2 to 4.3 leaf stage, 21st day after application, 2.5 g/ha) of 65% and an inhibition at 5 g/ha (velvetleaf; Abutilon theophrasti, foliar, read-out: Growth inhibition rate (%) of velvetleaf, Measured value, 3.3 to 4.3 leaf stage, 20th day after application) of 80%.
In the case of `CCOc1c(S(C)(=O)=O)ccc(C(=O)c2cnn(C)c2O)c1C` [No. 2-19], the “Growth inhibition rate (%) of crabgrass, Measured value” (crabgrass; 3.8 to 5.2 leaf stage, 21st day after application, 7 g/ha) is reported as 30%, the “Growth inhibition rate (%) of velvetleaf, Measured value” (velvetleaf; 3.2 to 5.0 leaf stage, 14th day after application, 7 g/ha) is reported as 60% and the “Growth inhibition rate (%) of velvetleaf, Measured value” (velvetleaf; 3.2 to 5.0 leaf stage, 21st day after application, 7 g/ha) is reported as 50%.
